From PubChem BioAssay AID1963834 (Molecular Pharmacology Branch, DTP, NCI, 2024)
“And” between values parts separate entries of the source, which are not always exact repeats. Equal values may be shown once.

Test system: 873145-292-R-J1-PDC complex spheroid viability
Assay: Anticancer human tumor 873145-292-R-J1-PDC patient-derived renal clear cell carcinoma cell line growth inhibition [POLQ]
Conditions: for viability, T/C: stronger effect = lower value
Description: Multicellular complex tumor spheroid response to Polymerase (POL) inhibitors (novobiocin, ART-558, RP6685) in combination with a variety of drugs and investigational agents in selected tumor cell lines
The POL inhibitors (novobiocin, ART-558, and RP6685) were evaluated both individually and in combination with standard of care and investigational anticancer small molecules within a complex spheroid model of solid tumors. . Complex spheroids include a stromal component modeled by human endothelial cells (HUVEC) and fibroblasts modeled by human mesenchymal stem cells (MSCs). The concentration ranges selected for each drug and investigational agent were based upon clinically achievable concentrations if the clinical Cmax of the agent was known.
Compounds. The drugs and investigational agents: novobiocin (NSC847541), ART-558 (NSC835418), RP-6685 (NSC848927), peposertib (NSC802822), ceralasertib (NSC780249), elimusertib (NSC800525), camonsertib (NSC841442), AZD-1390 (NSC803789), olaparib (NSC753686), talazoparib (NSC767125), rucaparib (NSC756644), sotorasib (NSC818433), MRTX-1133 (NSC836407), SN-38 (NSC673596), topotecan (NSC609699), epotoside (NSC141540), doxorubicin (NSC123127), gemcitabine (NSC613327), 5-fluorouracil (NSC19893), paclitaxel (NSC125973), vemurafenib (NSC761431), MSA-2 (NSC828583), SN-011 (NSC837082), adavosertib (NSC754352), prexasertib (NSC758257), carboplatin (NSC241240) and oxaliplatin (NSC266046), were obtained from the National Cancer Institute (NCI) Developmental Therapeutics Program Chemical Repository (21). The FDA-approved anticancer drug set is available from the Developmental Therapeutics Program at https://dtp.cancer.gov/organization/dscb/obtaining/. […] The stock solutions were prepared in dimethyl sulfoxide (DMSO, Sigma-Aldrich, St. Louis, MO, cat. D2650), except for the platinum compounds which were prepared in saline (Quality Biological, Gaithersburg, MD, cat. 114-055-101), at 800-fold the tested concentration and stored at -70 degrees C prior to their use. All drugs and investigational agents were tested over a range starting from a high concentration at or near the clinical Cmax and decreasing in half-log increments. If the clinical Cmax for an agent had not been determined, the highest concentration tested was 10 microM, except for SN-38, which was tested at a high concentration of 1 microM.
Cell Culture. All cells were maintained in an incubator at 37 degrees C and 5% CO2 with 95% humidity. The PDC lines were cultured according to standard operating procedures established by the NCI PDMR (https://pdmr.cancer.gov). Table 3 of the manuscript, lists the cell lines along with the number of the three cell types plated to form the mct-spheroids and media for tumor cell growth. After thawing, all PDC lines, except 997537-175-T-J1-PDC and 415267-285-R-J2-PDC, were cultured in Matrigel-coated flasks prepared with a working solution of 1X Ham's F-12 nutrient mix, without supplementation (Thermo Fisher Scientific, cat. 11765054), 100 U/mL penicillin-streptomycin (Thermo Fisher Scientific, cat. 15140122), and 2.5% Matrigel (Corning Inc., Corning, NY, cat. 354248) for the first three passages. The two PDC lines 997537-175-T-J1-PDC and 415267-285-R-J2-PDC were cultured on uncoated flasks. The 857933-349-R-J2-PDC line was cultured in 6C/Colon 1B media containing advanced DMEM/F-12 (Thermo Fisher Scientific, cat. 12634028), 10 mM HEPES (Thermo Fisher Scientific, cat. 15630080), 1X GlutaMAX supplement (Thermo Fisher Scientific, cat. 35050061), 0.1 mg/mL primocin (InvivoGen, San Diego, CA, cat. ant-pm-2), 10% defined fetal bovine serum, heat inactivated (HyClone Laboratories Inc., Logan, UT, cat. SH30070.03HI), 50% L-WRN conditioned media (ATCC, cat. CRL-3276), 1.25 mM N-Acetyl-L-cysteine (Sigma-Aldrich, cat. A9165), 10 mM nicotinamide (Sigma-Aldrich, cat. N0636), 1X B-27 supplement (Thermo Fisher Scientific, cat. 17504044), 1X N-2 supplement (Thermo Fisher Scientific, cat. […]
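Also: spheroids exposed to compounds for 7 days before viability readout.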
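For viability, T/C in this document: luminescence signal used as surrogate for viable cell content; 100% = DMSO vehicle control viability.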

Structure (SMILES): CC(=O)O[C@H]1C(=O)[C@@]2(C)[C@H]([C@H](OC(=O)c3ccccc3)[C@]3(O)C[C@H](OC(=O)[C@H](O)[C@@H](NC(=O)c4ccccc4)c4ccccc4)C(C)=C1C3(C)C)[C@]1(OC(C)=O)CO[C@@H]1C[C@@H]2O + Cc1cccc(N(C)C(=O)C2C(O)CCN2c2nc(C)cc(C(F)(F)F)c2C#N)c1
- IC50 (curve of first compound, second compound 0.0316 µM): > 3 µM
- IC50 (curve of first compound, second compound 0.1 µM): > 3 µM
- IC50 (curve of first compound, second compound 0.316 µM): > 3 µM
- IC50 (curve of first compound, second compound 1 µM): > 3 µM
- IC50 (curve of first compound, second compound 3.16 µM): > 3 µM
- IC50 (curve of first compound, second compound 10 µM): > 3 µM
- viability, T/C (second compound 0.0316 µM, first compound 0.00949 µM): 92.4%
- viability, T/C (second compound 0.0316 µM, first compound 0.03 µM): 75.9%
- viability, T/C (second compound 0.0316 µM, first compound 0.0949 µM): 74.7%
- viability, T/C (second compound 0.0316 µM, first compound 0.3 µM): 69.1%
- viability, T/C (second compound 0.0316 µM, first compound 0.949 µM): 72.8%
- viability, T/C (second compound 0.0316 µM, first compound 3 µM): 74.9%
- viability, T/C (second compound 0.1 µM, first compound 0.00949 µM): 92%
- viability, T/C (second compound 0.1 µM, first compound 0.03 µM): 99%
- viability, T/C (second compound 0.1 µM, first compound 0.0949 µM): 67%
- viability, T/C (second compound 0.1 µM, first compound 0.3 µM): 77.7%
- viability, T/C (second compound 0.1 µM, first compound 0.949 µM): 68.6%
- viability, T/C (second compound 0.1 µM, first compound 3 µM): 66.3%
- viability, T/C (second compound 0.316 µM, first compound 0.00949 µM): 94.5%
- viability, T/C (second compound 0.316 µM, first compound 0.03 µM): 82.4%
- viability, T/C (second compound 0.316 µM, first compound 0.0949 µM): 76.2%
- viability, T/C (second compound 0.316 µM, first compound 0.3 µM): 74.1%
- viability, T/C (second compound 0.316 µM, first compound 0.949 µM): 76.5%
- viability, T/C (second compound 0.316 µM, first compound 3 µM): 70.3%
- viability, T/C (second compound 1 µM, first compound 0.00949 µM): 79.7%
- viability, T/C (second compound 1 µM, first compound 0.03 µM): 84.3%
- viability, T/C (second compound 1 µM, first compound 0.0949 µM): 81.8%
- viability, T/C (second compound 1 µM, first compound 0.3 µM): 77.8%
- viability, T/C (second compound 1 µM, first compound 0.949 µM): 73.3%
- viability, T/C (second compound 1 µM, first compound 3 µM): 69.3%
- viability, T/C (second compound 3.16 µM, first compound 0.00949 µM): 84.7%
- viability, T/C (second compound 3.16 µM, first compound 0.03 µM): 85.6%
- viability, T/C (second compound 3.16 µM, first compound 0.0949 µM): 72.5%
- viability, T/C (second compound 3.16 µM, first compound 0.3 µM): 71.5%
- viability, T/C (second compound 3.16 µM, first compound 0.949 µM): 80.3%
- viability, T/C (second compound 3.16 µM, first compound 3 µM): 80.4%
- viability, T/C (second compound 10 µM, first compound 0.00949 µM): 75.4%
- viability, T/C (second compound 10 µM, first compound 0.03 µM): 80.3%
- viability, T/C (second compound 10 µM, first compound 0.0949 µM): 75.8%
- viability, T/C (second compound 10 µM, first compound 0.3 µM): 65.9%
- viability, T/C (second compound 10 µM, first compound 0.949 µM): 75.6%
- viability, T/C (second compound 10 µM, first compound 3 µM): 71.2%

Structure (SMILES): O=C(c1cc(Cc2n[nH]c(=O)c3ccccc23)ccc1F)N1CCN(C(=O)C2CC2)CC1
- viability, T/C (compound 0.0316 µM): 99.8% and 99.5% and 107%
- viability, T/C (compound 0.1 µM): 96.2% and 91.1% and 106%
- viability, T/C (compound 0.316 µM): 91.9% and 115% and 107%
- viability, T/C (compound 1 µM): 104% and 97.4% (2×)
- viability, T/C (compound 3.16 µM): 98.6% and 112% and 104%
- viability, T/C (compound 10 µM): 91.7% and 95.1% and 102%
- IC50 (curve of compound): > 10 µM

Structure (SMILES): CC1COCCN1c1cc(C2(O)CC3CCC(C2)O3)c2cnn(-c3ccn[nH]3)c2n1 (stereo unspecified)
- viability, T/C (compound 0.0316 µM): 86.7% and 86.2% and 97.9%
- viability, T/C (compound 0.1 µM): 84.8% and 72% and 82.1%
- viability, T/C (compound 0.316 µM): 56.8% and 49.1% and 60.9%
- viability, T/C (compound 1 µM): 48.6% and 43% and 55.3%
- viability, T/C (compound 3.16 µM): 40% and 39.9% and 48.1%
- viability, T/C (compound 10 µM): 31.9% and 32.5% and 41%
- IC50 (curve of compound): 0.741 µM and 0.385 µM and 1.81 µM
